Data set [1] is described as follows: Solubility of CPC (properties). The format is physicochemical.
For data set [2], the system named is Bacillus subtilis spores. In words: Spore germination-inhibitory effects by CPC, AGFK germinator (Example 2). The format is cell-based. To be noted: 1 mg/ml CPC, 37° C., 2 hours. How it is done: The germination-inhibitory activity was measured as follows: ½ volume of a sample was allowed to react with ½ volume of spore suspension (0.2 mg/ml Bacillus subtilis spores, 40 mM Tris HCl, pH 7.5) containing germinator (20 mM L-asparagine, 2 mM D-glucose, 2 mM D-fructose, 20 mM KCl) at 37° C. The spores gradually darkened with germination increase, and turbidity of the suspension decreased. Thereupon, the turbidity of the spore suspension was measured at 600 nm using a spectrophotometer, and a germination rate was determined by calculating the rate of decrease of turbidity. In order to examine the germination-inhibitory effects of CPC, the following tests were conducted. Spore suspension containing 0.1 mg/ml Bacillus subtilis spores, 20 mM Tris.HCl, pH 7.5. Spore suspension as above further containing 10 mM L-asparagine, 1 mM D-glucose, 1 mM D-fructose and 10 mM KCl as germinator. Spore suspension as above containing the germination (Test Group 2) and further containing 1 mg/ml CPC. The above spore suspensions were allowed to react at 37° C. for 2 hours, and spore germination conditions were examined. The turbidity of each test group after 2 hours was measured at 600 nm using a spectrophotometer. In the test group 2, the turbidity of the spore suspension was decreased remarkably compared with the start of the reaction, and sufficient germination of spores was found. […]

Data set [3] relates to Bacillus subtilis spores. The data set is described as follows: Germination inhibition by combination of CPC and D-alanine in sufficient nutrients (Example 3). To be noted: 1 mg/ml each; for variation of the turbidity of the spore suspension at 600 nm (germination): 25 g/l Bacto-LB broth plus AGFK germinator, 37° C., 2 hours; for inhibition at 1000 µg/mL: Bacillus subtilis, 0.5 h, LB broth plus AGFK, variation of OD600 for 30 minutes, test group 1 = 100%, test group 2 = 0%, read-out: germination inhibition rate. The format is cell-based. How it is done: Thereupon, in order to examine germination-inhibitory effects by the combination of CPC and D-alanine which is a known germination-inhibitory substance, the following test groups were prepared. Spore suspension containing 0.1 mg/ml Bacillus subtilis spores, 20 mM Tris.HCl, pH 7.5. Spore suspension containing 0.1 mg/ml Bacillus subtilis, 25 g/l Bacto-LB broth, Miller (DIFCO) as sufficient nutrients, and 10 mM L-asparagine, 1 mM D-glucose, 1 mM D-fructose and 10 mM KCl (AGFK system) as germinator. Spore suspension as above containing the sufficient nutrients (Test Group 2) and further containing 1 mg/ml CPC. Spore suspension as above containing the sufficient nutrients (Test Group 2) and further containing 1 mg/ml D-alanine. Spore suspension as above containing the sufficient nutrients (Test Group 2) and further containing 1 mg/ml CPC and 1 mg/ml D-alanine. The above spore suspensions were allowed to react at 37° C. for 2 hours, and spore germination conditions were examined. The variation of the turbidity of each test group was measured through the above reaction at 600 nm using a spectrophotometer. […] After 2 hours, the turbidity became the same turbidity as the initial one, and growth subsequest to the germination (vegetative growth) was observed. […] Each inhibition rate was calculated based on the variation of OD600 value for 30 minutes from the start of measurement wherein the germination inhibition rate in the test group 1 is assigned 100% and that in the test group 2 is assigned 0%.

These results are taken from patent US6506431B2, “Spore germination inhibitor and food containing the same” (Ajinomoto Co., Inc., priority 2000, dated 2003).

Molecules are shown by their SMILES.

As usually defined, the inhibition is the relative decrease from the control value, in per cent.

For the compound `NC(=O)c1cccc(C(=O)O)n1` [CPC, 6-carbamoyl-2-pyridine carboxylic acid], the solubility entry in data set [1] was “Soluble in water, particularly alkaline water, and organic solvent, such as pyridine and DMSO”. Moreover, in data set [2] (AGFK germinator), the “spore germination observed by phase-contrast microscope” value is listed as “germination of spores was not recognized”. The “spore germination by turbidity of the spore suspension at 600 nm” value in data set [2] (germinator 10 mM L-asparagine, 1 mM D-glucose, 1 mM D-fructose, 10 mM KCl) was “germination was not observed”. Moreover, in data set [3], the “variation of the turbidity of the spore suspension at 600 nm (germination)” value is on record as “growth subsequent to the germination was observed” and the inhibition at 1000 µg/mL was determined as 9%.
On to `C[C@@H](N)C(=O)O` [D-alanine, reference compound], for which, in data set [3], the “variation of the turbidity of the spore suspension at 600 nm (germination)” value is “growth subsequent to the germination was observed” and the inhibition at 1000 µg/mL amounted to 16%.
